This passage reports LC retention time results from the RepoRT retention time repository (doi:10.1007/s00216-013-6954-6).

The nature of data set [1]: RP, Waters ACQUITY UPLC HSS T3, 150 × 2.1 mm, 1.8 µm; A: water + 0.1% formic acid; B: acetonitrile + 0.1% formic acid; gradient (min/%B) 0/5 1/5 16/95 18/95. The following applies: stereoisomer not certain.
A short description of data set [2]: RP, Waters ACQUITY UPLC HSS T3, 100 × 1 mm, 1.8 µm; A: water + 0.1% formic acid, pH 3; B: acetonitrile + 0.1% formic acid, pH 3; gradient (min/%B) 0/5 1/5 16/95 18/95 20/5. The following applies: stereoisomer not certain.

For the compound `CCC(C)C(NC(=O)C(N)CC(C)C)C(=O)O` (centres undefined), in data set [1], the LC retention time turned out to be 3.3 min.

`CSCCCCCCCCC(N)C(=O)O` (centres undefined): in data set [1], the LC retention time was found to be 5.4 min.

For the compound `COc1cc2ccc(=O)oc2cc1O` [Scopoletin], the LC retention time in data set [2] came to 4.5 min.

For `NC(N)=NCCCC(N)C(=O)O` (centres undefined) [Arginine], the LC retention time in data set [2] worked out at 0.413 min.

Turning to `COc1cccc2[nH]cc(CN)c12`, the LC retention time in data set [1] is 3.2 min.

Turning to `CCC(C)C(N)C(=O)NC(Cc1ccccc1)C(=O)O` (stereo not drawn) [H-Ile-Phe-OH], the LC retention time in data set [2] worked out at 3.9 min.

On to `O=c1[nH]cnc2c1ncn2C1OC(CO)C(O)C1O` (centres undefined), for which, in data set [1], the LC retention time was 0.839 min.

As for `CCC(C)C(NC(=O)C(N)Cc1ccc(O)cc1)C(=O)O` (centres undefined), the LC retention time in data set [1] was 2.9 min.

For `CSCCCCCCCCC(N)C(=O)O` (centres undefined) [Hexahomo-Met], the LC retention time in data set [2] was found to be 5.4 min.

Regarding `NC(=O)NCCCC(N)C(=O)O` (centres undefined), in data set [1], the LC retention time is 0.457 min.

As for `NCc1c[nH]c2ccccc12` [Indol-3-ylmethylamine (I3CH2NH2)], the LC retention time in data set [2] came to 1.8 min.

For the compound `CCCCCCCCCCCCCCCC(=O)OCC(O)COP(=O)([O-])OCC[N+](C)(C)C` (centres undefined) [lysoPC(16:0/0:0)], the LC retention time in data set [2] was 11.6 min.

Consider `O=C(O)C(O)Cc1ccccc1` (centres undefined), for which, in data set [1], the LC retention time was found to be 4.37 min.

Consider `O=c1cc[nH]c(=O)[nH]1`, for which the LC retention time in data set [1] stood at 0.638 min.

`O=C(O)C1CCCN1` (centres undefined) [Proline]: in data set [2], the LC retention time came to 0.482 min.

`O=c1ccc2cc(OC3OC(CO)C(O)C(O)C3O)c(O)cc2o1` (centres undefined): in data set [1], the LC retention time is 2.9 min.

On to `O=C(O)CCCCC(=O)O`, for which, in data set [1], the LC retention time worked out at 2.33 min.

`NCc1c[nH]c2ccccc12`: the LC retention time in data set [1] amounted to 1.8 min.

Consider `COc1cc(CC2COC(c3ccc(O)c(OC)c3)C2CO)ccc1O` (centres undefined), for which, in data set [1], the LC retention time came out at 5.6 min.

Turning to `CSCCCCCCCC(N)C(=O)O` (centres undefined), the LC retention time in data set [1] stood at 4.6 min.

Turning to `O=C(O)CCCCC(=O)O` [Adipic acid], the LC retention time in data set [2] came to 2.33 min.

For `CC(C(=O)O)C(=O)O` [Methylmalonic acid], in data set [2], the LC retention time came to 0.733 min.

As to `CC(C)CC(N)C(=O)N1CCCC1C(=O)O` (stereo not drawn) [H-Leu-Pro-OH], in data set [2], the LC retention time turned out to be 2.6 min.

For `CCC(C)C(NC(=O)C(N)Cc1ccccc1)C(=O)O` (stereo not drawn) [H-Phe-Ile-OH], the LC retention time in data set [2] came to 3.8 min.

Regarding `Cc1cn(C2CC(O)C(CO)O2)c(=O)[nH]c1=O` (centres undefined), the LC retention time in data set [1] was found to be 1.6 min.

As to `Nc1nc2c(ncn2C2OC(CO)C(O)C2O)c(=O)[nH]1` (centres undefined), the LC retention time in data set [1] came out at 1.1 min.

Turning to `CCC(C)C(N)C(=O)NC(CC(C)C)C(=O)O` (stereo not drawn) [H-Ile-Leu-OH], the LC retention time in data set [2] worked out at 3.4 min.

With `O=C(O)CCCCCC(=O)O`, in data set [1], the LC retention time amounted to 3.47 min.

On to `Cn1cnc(CC(N)C(=O)O)c1` (centres undefined), for which the LC retention time in data set [1] was 0.407 min.

In the case of `O=C(O)C1CCCN1` (centres undefined), the LC retention time in data set [1] amounted to 0.482 min.

As to `CCCCCCCCC=CCCCCCCCC(=O)OCC(O)COP(=O)([O-])OCC[N+](C)(C)C` (centres undefined) [lysoPC(18:1(9Z)/0:0)], the LC retention time in data set [2] was found to be 12 min.

Consider `O=C(O)CNC(=O)c1ccccc1`, for which the LC retention time in data set [1] was 3.39 min.

For `CC(C)CC(N)C(=O)NC(Cc1ccc(O)cc1)C(=O)O` (stereo not drawn) [H-Leu-Tyr-OH], in data set [2], the LC retention time amounted to 2.8 min.

Turning to `COc1cc2ccc(=O)oc2cc1OC1OC(CO)C(O)C(O)C1O` (centres undefined), the LC retention time in data set [1] stood at 3.3 min.

For `Cc1cn(C2CC(O)C(CO)O2)c(=O)[nH]c1=O` (centres undefined) [Thymidine], in data set [2], the LC retention time is 1.6 min.

`CC(C)CC(N)C(=O)NC(CC(C)C)C(=O)O` (centres undefined): the LC retention time in data set [1] worked out at 3.6 min.

Turning to `COc1cc2ccc(=O)oc2cc1OC1OC(CO)C(O)C(O)C1O` (centres undefined) [Scopolin], the LC retention time in data set [2] is 3.3 min.

For the compound `CC12CCC(=O)C=C1CCC1C2C(=O)CC2(C)C1CCC2(O)C(=O)CO` (centres undefined) [Cortisone], the LC retention time in data set [2] worked out at 6.61 min.

Consider `Cn1c(=O)c2c(ncn2C)n(C)c1=O`, for which the LC retention time in data set [1] worked out at 3.46 min.

Take `CSCCC(N)C(=O)O` (centres undefined): the LC retention time in data set [1] came out at 0.643 min.

Take `CC(C)CC(NC(=O)C(N)Cc1ccccc1)C(=O)O` (stereo not drawn) [H-Phe-Leu-OH]: in data set [2], the LC retention time came to 4.1 min.

As to `CC(CCC(=O)NCCS(=O)(=O)O)C1CCC2C3C(O)CC4CC(O)CCC4(C)C3CC(O)C12C` (centres undefined) [Taurocholic acid], the LC retention time in data set [2] turned out to be 7.57 min.

Take `O=c1[nH]cnc2c1ncn2C1OC(CO)C(O)C1O` (centres undefined) [Inosine]: in data set [2], the LC retention time was determined as 0.839 min.

`CC(C)CC(NC(=O)C(N)Cc1ccccc1)C(=O)O` (centres undefined): the LC retention time in data set [1] was 4.1 min.

Consider `COc1cc(CC2COC(c3ccc(O)c(OC)c3)C2CO)ccc1O` (centres undefined) [Lariciresinol], for which the LC retention time in data set [2] was determined as 5.6 min.

For `COc1cccc2[nH]cc(CN)c12` [4-MeO-I3CH2NH2], in data set [2], the LC retention time came to 3.2 min.

As to `O=Cc1c[nH]c2cccc(O)c12`, in data set [1], the LC retention time was determined as 5.1 min.

In the case of `CC(CCC(=O)NCC(=O)O)C1CCC2C3C(O)CC4CC(O)CCC4(C)C3CC(O)C12C` (centres undefined) [Glycocholic acid], the LC retention time in data set [2] was found to be 7.92 min.

`Cc1cc2nc3c(=O)[nH]c(=O)nc-3n(CC(O)C(O)C(O)CO)c2cc1C` (centres undefined) [Riboflavin]: the LC retention time in data set [2] amounted to 3.92 min.
